Data from PMC8691750, “Euphorbia Factor L2 ameliorates the Progression of K/BxN Serum-Induced Arthritis by Blocking TLR7 Mediated IRAK4/IKKβ/IRF5 and NF-kB Signaling Pathways” (Frontiers in Pharmacology, 2021).
“And” between values parts separate entries of the source, which are not always exact repeats. Identical values can stand only once.

System: TLR signalling pathway genes
Test: Toll-like Receptor Pathway PCR array of ankles
Type: in vivo, C57BL/6 mice
Conditions: for S40/SIA (fold change) / log2(fold change) S40/SIA: S40 group vs SIA group
Experimental: Total RNA was isolated from the right ankles using the TRIzol Reagent (Invitrogen) and purified with RNeasy Mini Kit and RNase-Free DNase Set (Qiagen). RNA quality was determined using a spectrophotometer and was reversely transcribed using Wcgene® mRNA cDNA kit. The complementary DNA was used on the Toll-like Receptor Pathway PCR Array plate (Wcgene® biotech, China).

C=C1C(OC(=O)c2ccccc2)CC2C(C=C(C)C(=O)C3(OC(C)=O)CC(C)C(OC(=O)c4ccccc4)C3C1OC(C)=O)C2(C)C (stereo not shown) [EFL2, Euphorbia factor L2]
S40/SIA (fold change) (Irak2 mRNA): 0.4814
log2(fold change) S40/SIA (Irak2 mRNA): -1.055
fold-GAPDH, Irak3 (Irak3 mRNA in ankles of STA mice, relative to GAPDH, one value per animal (samples S401-S405)): 0.01639 and 0.02176 and 0.01462 and 0.00868
S40/SIA (fold change) (Irak3 mRNA): 0.4891
log2(fold change) S40/SIA (Irak3 mRNA): -1.032
fold-GAPDH, Irak4 (Irak4 mRNA in ankles of STA mice, relative to GAPDH, one value per animal (samples S401-S405)): 0.005444 and 0.007871 and 0.004771 and 0.003248
fold-GAPDH, Irf1 (Irf1 mRNA in ankles of STA mice, relative to GAPDH, one value per animal (samples S401-S405)): 0.006938 and 0.008232
S40/SIA (fold change) (Irf1 mRNA): 0.3319
log2(fold change) S40/SIA (Irf1 mRNA): -1.591
fold-GAPDH, Irf3 (Irf3 mRNA in ankles of STA mice, relative to GAPDH, one value per animal (samples S401-S405)): 0.01116 and 0.01143 and 0.004857
S40/SIA (fold change) (Irf3 mRNA): 0.3241
log2(fold change) S40/SIA (Irf3 mRNA): -1.626
fold-GAPDH, Jun (Jun mRNA in ankles of STA mice, relative to GAPDH, one value per animal (samples S401-S405)): 0.04078 and 0.0443 and 0.03642 and 0.03036
S40/SIA (fold change) (Jun mRNA): 0.3678
log2(fold change) S40/SIA (Jun mRNA): -1.443
fold-GAPDH, Ly86 (Ly86 mRNA in ankles of STA mice, relative to GAPDH, one value per animal (samples S401-S405)): 0.008619 and 0.01651 and 0.01407 and 0.001011
fold-GAPDH, Ly96 (Ly96 mRNA in ankles of STA mice, relative to GAPDH, one value per animal (samples S401-S405)): 0.00648 and 0.008818 and 0.008037 and 0.003545
S40/SIA (fold change) (Ly96 mRNA): 0.3878
log2(fold change) S40/SIA (Ly96 mRNA): -1.367
fold-GAPDH, Map2k3 (Map2k3 mRNA in ankles of STA mice, relative to GAPDH, one value per animal (samples S401-S405)): 0.0383 and 0.04062 and 0.04366 and 0.0009844
fold-GAPDH, Map2k4 (Map2k4 mRNA in ankles of STA mice, relative to GAPDH, one value per animal (samples S401-S405)): 0.006054 and 0.009032 and 0.01171 and 0.005161
S40/SIA (fold change) (Map2k4 mRNA): 0.8651
log2(fold change) S40/SIA (Map2k4 mRNA): -0.209
fold-GAPDH, Map3k1 (Map3k1 mRNA in ankles of STA mice, relative to GAPDH, one value per animal (samples S401-S405)): 0.006062 and 0.005781 and 0.1236
fold-GAPDH, Map3k7 (Map3k7 mRNA in ankles of STA mice, relative to GAPDH, one value per animal (samples S401-S405)): 0.01592 and 0.021 and 0.01646 and 0.01133
fold-GAPDH, Mapk8ip3 (Mapk8ip3 mRNA in ankles of STA mice, relative to GAPDH, one value per animal (samples S401-S405)): 0.001064 and 0.001038
fold-GAPDH, Mapk8 (Mapk8 mRNA in ankles of STA mice, relative to GAPDH, one value per animal (samples S401-S405)): 0.01945 and 0.02479 and 0.0101
fold-GAPDH, Mapk9 (Mapk9 mRNA in ankles of STA mice, relative to GAPDH, one value per animal (samples S401-S405)): 0.001275 and 0.001267 and 0.00173 and 0.000754
fold-GAPDH, Muc13 (Muc13 mRNA in ankles of STA mice, relative to GAPDH, one value per animal (samples S401-S405)): 6.559e-5 and 0.0002674 and 0.000223 and 0.0001076
fold-GAPDH, Myd88 (Myd88 mRNA in ankles of STA mice, relative to GAPDH, one value per animal (samples S401-S405)): 0.009066 and 0.0089 and 0.006533 and 0.004478
S40/SIA (fold change) (Myd88 mRNA): 0.1447
log2(fold change) S40/SIA (Myd88 mRNA): -2.789
fold-GAPDH, Nfkb1 (Nfkb1 mRNA in ankles of STA mice, relative to GAPDH, one value per animal (samples S401-S405)): 0.02137 and 0.03037 and 0.044 and 0.01259
fold-GAPDH, Nfkb2 (Nfkb2 mRNA in ankles of STA mice, relative to GAPDH, one value per animal (samples S401-S405)): 0.005983 and 0.008129 and 0.004372 and 0.004079
S40/SIA (fold change) (Nfkb2 mRNA): 0.2395
log2(fold change) S40/SIA (Nfkb2 mRNA): -2.062
fold-GAPDH, Nfkbia (Nfkbia mRNA in ankles of STA mice, relative to GAPDH, one value per animal (samples S401-S405)): 0.03064 and 0.03111 and 0.02056 and 0.01675
S40/SIA (fold change) (Nfkbia mRNA): 0.2445
log2(fold change) S40/SIA (Nfkbia mRNA): -2.032
fold-GAPDH, Nfkbib (Nfkbib mRNA in ankles of STA mice, relative to GAPDH, one value per animal (samples S401-S405)): 0.00388 and 0.005737 and 0.004539 and 0.002397
S40/SIA (fold change) (Nfkbib mRNA): 0.4073
log2(fold change) S40/SIA (Nfkbib mRNA): -1.2959
fold-GAPDH, Nfrkb (Nfrkb mRNA in ankles of STA mice, relative to GAPDH, one value per animal (samples S401-S405)): 0.003341 and 0.001769 and 0.003291
fold-GAPDH, Nr2c2 (Nr2c2 mRNA in ankles of STA mice, relative to GAPDH, one value per animal (samples S401-S405)): 0.008167 and 0.009954 and 0.006912 and 0.004742
S40/SIA (fold change) (Nr2c2 mRNA): 0.5521
log2(fold change) S40/SIA (Nr2c2 mRNA): -0.8571
fold-GAPDH, Peli1 (Peli1 mRNA in ankles of STA mice, relative to GAPDH, one value per animal (samples S401-S405)): 0.01623 and 0.02035 and 0.01296 and 0.0006428
S40/SIA (fold change) (Peli1 mRNA): 0.462
log2(fold change) S40/SIA (Peli1 mRNA): -1.114
fold-GAPDH, Pglyrp1 (Pglyrp1 mRNA in ankles of STA mice, relative to GAPDH, one value per animal (samples S401-S405)): 0.001422 and 0.0004159 and 0.002383
S40/SIA (fold change) (Pglyrp1 mRNA): 0.2161
log2(fold change) S40/SIA (Pglyrp1 mRNA): -2.21
fold-GAPDH, Ppara (Ppara mRNA in ankles of STA mice, relative to GAPDH, one value per animal (samples S401-S405)): 0.001398 and 0.003006 and 0.002272 and 0.0004292
fold-GAPDH, Ptgs2 (Ptgs2 mRNA in ankles of STA mice, relative to GAPDH, one value per animal (samples S401-S405)): 0.001434 and 0.000397 and 0.0002674 and 0.0003018
S40/SIA (fold change) (Ptgs2 mRNA): 0.03786
log2(fold change) S40/SIA (Ptgs2 mRNA): -4.723
S40/SIA (fold change) (Rel mRNA): 0.2762
log2(fold change) S40/SIA (Rel mRNA): -1.8562
S40/SIA (fold change) (Ticam1 mRNA): 0.59
log2(fold change) S40/SIA (Ticam1 mRNA): -0.7611
S40/SIA (fold change) (Tlr2 mRNA): 0.1682
log2(fold change) S40/SIA (Tlr2 mRNA): -2.571
S40/SIA (fold change) (Tlr3 mRNA): 0.7859
log2(fold change) S40/SIA (Tlr3 mRNA): -0.3477
S40/SIA (fold change) (Tlr4 mRNA): 0.5705
log2(fold change) S40/SIA (Tlr4 mRNA): -0.8096
S40/SIA (fold change) (Tlr5 mRNA): 0.188
log2(fold change) S40/SIA (Tlr5 mRNA): -2.411
S40/SIA (fold change) (Tlr7 mRNA): 0.09461
log2(fold change) S40/SIA (Tlr7 mRNA): -3.402
